Reference: ChEMBL document CHEMBL1124513, “Synthesis and antitumor activity of ribavirin imidates. A new facile synthesis of ribavirin amidine (1-beta-D-ribofuranosyl-1,2,4-triazole-3-carboxamidine hydrochloride)” (J Med Chem, 1989)
Values joined by “and” are separate entries in the source; they are usually repeats but may differ in a detail not shown here. Identical values can stand only once.

Legend:
[1] = tested on: L1210; assay: Residual leukemic cell populations after last treatment in L1210 leukemic mice treated with 480 mg/kg of compound (bid, day 1,3,5,7); assay type: functional, Mus musculus
[2] = tested on: L1210; assay: Residual leukemic cell populations after last treatment in L1210 leukemic mice treated with 480 mg/kg of compound (bid, day 1-7); Toxic; assay type: toxicity, organism-based; set-up: dose 480 mg/kg; settings: mouse, in vivo
[3] = tested on: L1210; assay: (§1) Residual leukemic cell populations after last treatment in L1210 leukemic mice treated with 480 mg/kg of compound (qd, day 1); assay type: functional, Mus musculus
[4] = tested on: L1210; assay: Residual leukemic cell populations after last treatment in L1210 leukemic mice treated with 480 mg/kg of compound (qd, day 1,3,5,7); assay type: functional, Mus musculus
[5] = tested on: L1210; assay: Residual leukemic cell populations after last treatment in L1210 leukemic mice treated with 480 mg/kg of compound (qd, day 1,4,7); assay type: functional, Mus musculus
[6] = tested on: L1210; assay: Residual leukemic cell populations after last treatment in L1210 leukemic mice treated with 480 mg/kg of compound (qid, day 1); Toxic; assay type: toxicity, organism-based; set-up: dose 480 mg/kg; settings: mouse, in vivo
[7] = tested on: L1210; assay: Residual leukemic cell populations after last treatment in L1210 leukemic mice treated with 480 mg/kg of compound (tid, day 1); assay type: functional, Mus musculus
[8] = tested on: L1210; assay: Residual leukemic cell populations after last treatment in L1210 leukemic mice treated with 480 mg/kg of compound (tid, day 1-7); Toxic; assay type: functional, organism-based; set-up: dose 480 mg/kg; settings: Mus musculus
[9] = tested on: L1210; assay: Residual leukemic cell populations after last treatment in L1210 leukemic mice treated with 480 mg/kg of compound (bid, day 1); assay type: functional, Mus musculus
[10] = tested on: L1210; assay: as §1; assay type: functional, Mus musculus; remark: listed apart in the source
[11] = tested on: L1210; assay: Residual leukemic cell populations after last treatment in L1210 leukemic mice treated with 480 mg/kg of compound (tid, day 1,3,5,7); Toxic; assay type: toxicity, organism-based; set-up: dose 480 mg/kg; settings: mouse, in vivo
[12] = tested on: Mus musculus; assay: Post inoculation life span in L1210 leukemic mice treated with 480 mg/kg of compound (bid, day 1); assay type: functional
[13] = tested on: Mus musculus; assay: Post inoculation life span in L1210 leukemic mice treated with 480 mg/kg of compound (bid, day 1,3,5,7); assay type: functional
[14] = tested on: Mus musculus; assay: Post inoculation life span in L1210 leukemic mice treated with 480 mg/kg of compound (bid, day 1-7); assay type: functional
[15] = tested on: Mus musculus; assay: (§2) Post inoculation life span in L1210 leukemic mice treated with 480 mg/kg of compound (qd, day 1); assay type: functional
[16] = tested on: Mus musculus; assay: Post inoculation life span in L1210 leukemic mice treated with 480 mg/kg of compound (qd, day 1,4,7); assay type: functional
[17] = tested on: Mus musculus; assay: (§3) Post inoculation life span in L1210 leukemic mice treated with 480 mg/kg of compound (qd, day 1-7); assay type: functional
[18] = tested on: Mus musculus; assay: Post inoculation life span in L1210 leukemic mice treated with 480 mg/kg of compound (tid, day 1); assay type: functional
[19] = tested on: Mus musculus; assay: Post inoculation life span in L1210 leukemic mice treated with 480 mg/kg of compound (tid, day 1,3,5,7); assay type: functional
[20] = tested on: Mus musculus; assay: Post inoculation life span in L1210 leukemic mice treated with 480 mg/kg of compound (tid, day 1-7); assay type: functional
[21] = tested on: Mus musculus; assay: as §2; assay type: functional; remark: listed apart in the source
[22] = tested on: Mus musculus; assay: Post inoculation life span in L1210 leukemic mice treated with 480 mg/kg of compound (qd, day 1,3,5,7); assay type: functional
[23] = tested on: Mus musculus; assay: as §3; assay type: functional; remark: listed apart in the source
[24] = tested on: Mus musculus; assay: Post inoculation life span in L1210 leukemic mice treated with 480 mg/kg of compound (qid, day 1); assay type: functional
[25] = tested on: Mus musculus; assay: Compound was evaluated for leukemia related splenomegaly in DBA2 mice spleen weight was determined ~ 24 hour after the last treatment at schedule of administration at qd, day 1,3, 5, 7, 9, 11 at a dose 288 mg/kg; assay type: functional
[26] = tested on: Mus musculus; assay: Compound was evaluated for leukemia related splenomegaly in DBA2 mice spleen weight was determined ~ 24 hour after the last treatment at schedule of administration = qd, day 1,3, 5, 7, 9, 11 at a dose 400 mg/kg; assay type: functional
[27] = tested on: Mus musculus; assay: Compound was evaluated for leukemia related splenomegaly in DBA2 mice spleen weight was determined ~ 24 hour after the last treatment at schedule of administration at bid, day 1,3, 5, 7, 9, 11 at a dose 288 mg/kg; assay type: functional
[28] = tested on: Mus musculus; assay: Compound was evaluated for leukemia related splenomegaly in DBA2 mice spleen weight was determined ~ 24 hour after the last treatment at schedule of administration at bid, day 1,3, 5, 7, 9, 11 at a dose 400 mg/kg; Toxic; assay type: ADME, organism-based; set-up: dose 400 mg/kg; settings: in vivo
[29] = tested on: L1210; assay: Residual leukemic cell populations after last treatment in L1210 leukemic mice treated with 1333 mg/kg of compound (qd, day 1); assay type: functional, Mus musculus
[30] = tested on: L1210; assay: Residual leukemic cell populations after last treatment in L1210 leukemic mice treated with 2222 mg/kg of compound (qd, day 1); Toxic; assay type: toxicity, organism-based; set-up: dose 2222 mg/kg; settings: mouse, in vivo
[31] = tested on: L1210; assay: Residual leukemic cell populations after last treatment in L1210 leukemic mice treated with 288 mg/kg of compound (qd, day 1); assay type: functional, Mus musculus
[32] = tested on: L1210; assay: Residual leukemic cell populations after last treatment in L1210 leukemic mice treated with 288 mg/kg of compound (qd, day 1-7); assay type: functional, Mus musculus
[33] = tested on: L1210; assay: Residual leukemic cell populations after last treatment in L1210 leukemic mice treated with 3704 mg/kg of compound (qd, day 1); Toxic; assay type: toxicity, organism-based; set-up: dose 3704 mg/kg; settings: mouse, in vivo
[34] = tested on: L1210; assay: Residual leukemic cell populations after last treatment in L1210 leukemic mice treated with 400 mg/kg of compound (qd, day 1); assay type: functional, Mus musculus
[35] = tested on: L1210; assay: Residual leukemic cell populations after last treatment in L1210 leukemic mice treated with 488 mg/kg of compound (qd, day 1-7); Toxic; assay type: toxicity, organism-based; set-up: dose 488 mg/kg; settings: mouse, in vivo
[36] = tested on: L1210; assay: (§4) Residual leukemic cell populations after last treatment in L1210 leukemic mice treated with 800 mg/kg of compound (qd, day 1); assay type: functional, Mus musculus
[37] = tested on: L1210; assay: as §4; assay type: functional, Mus musculus; remark: listed apart in the source
[38] = tested on: L1210; assay: Residual leukemic cell populations after last treatment in L1210 leukemic mice treated with 800 mg/kg of compound (qd, day 1-7); Toxic; assay type: toxicity, organism-based; set-up: dose 800 mg/kg; settings: mouse, in vivo
[39] = tested on: Mus musculus; assay: Compound was evaluated for leukemia related splenomegaly in DBA2 mice spleen weight was determined ~ 24 hour after the last treatment at schedule of administration = qd, day 1,3, 5, 7, 9, 11 at a dose 1333 mg/kg; Toxic; assay type: ADME, organism-based; set-up: dose 1333 mg/kg; settings: in vivo
[40] = tested on: Mus musculus; assay: Post inoculation life span in L1210 leukemic mice treated with 1333 mg/kg of compound (qd, day 1); assay type: functional
[41] = tested on: Mus musculus; assay: Post inoculation life span in L1210 leukemic mice treated with 2222 mg/kg of compound (qd, day 1); Tested in 6 mice; assay type: functional
[42] = tested on: Mus musculus; assay: Post inoculation life span in L1210 leukemic mice treated with 288 mg/kg of compound (qd, day 1-7); Tested in 6 mice; assay type: functional
[43] = tested on: Mus musculus; assay: Post inoculation life span in L1210 leukemic mice treated with 288 mg/kg of compound (qd, day 1); Tested in 6 mice; assay type: functional
[44] = tested on: Mus musculus; assay: Post inoculation life span in L1210 leukemic mice treated with 3704 mg/kg of compound (qd, day 1); Tested in 6 mice; assay type: functional
[45] = tested on: Mus musculus; assay: Post inoculation life span in L1210 leukemic mice treated with 480 mg/kg of compound (qd, day 1); Tested in 6 mice; assay type: functional
[46] = tested on: Mus musculus; assay: Post inoculation life span in L1210 leukemic mice treated with 480 mg/kg of compound (qd, day 1-7); Tested in 6 mice; assay type: functional
[47] = tested on: Mus musculus; assay: Post inoculation life span in L1210 leukemic mice treated with 800 mg/kg of compound (qd, day 1); Tested in 6 mice; assay type: functional
[48] = tested on: Mus musculus; assay: Post inoculation life span in L1210 leukemic mice treated with 800 mg/kg of compound (qd, day 1-7); Tested in 6 mice; assay type: functional
[49] = tested on: Mus musculus; assay: Compound was evaluated for leukemia related splenomegaly in DBA2 mice spleen weight was determined ~ 24 hour after the last treatment at schedule of administration = qd, day 1,3, 5, 7, 9, 11 at a dose 480 mg/kg; assay type: functional
[50] = tested on: Mus musculus; assay: Compound was evaluated for leukemia related splenomegaly in DBA2 mice spleen weight was determined ~ 24 hour after the last treatment at schedule of administration = qd, day 1,3, 5, 7, 9, 11 at a dose 800 mg/kg; Toxic; assay type: ADME, organism-based; set-up: dose 800 mg/kg; settings: in vivo

Compound: COC(=N)c1ncn([C@@H]2O[C@H](CO)[C@@H](O)[C@H]2O)n1
- Control [1]: 12%
- Control [2]: Toxic
- Control [3]: 30% and 21%
- Control [4]: 46%
- Control [5]: 73%
- Control [6]: Toxic
- Control [7]: 0.6%
- Control [8]: Toxic
- Control [9]: 9%
- Control [10]: 32%
- Control [11]: Toxic
- T/C [12]: 125%
- T/C [13]: 162%
- T/C [14]: 101%
- T/C [15]: 113% and 116%
- T/C [16]: 119%
- T/C [17]: 162% and 97%
- T/C [18]: 153%
- T/C [19]: 76%
- T/C [20]: 61%
- T/C [21]: 114%
- T/C [22]: 121%
- T/C [23]: 142%
- T/C [24]: 60%
- Spleen weight [25]: 599 mg
- Spleen weight [26]: 216 mg
- Spleen weight [27]: 150 mg
- Spleen weight [28]: Toxic

Compound: CCOC(=N)c1ncn(C2O[C@H](CO)[C@@H](O)[C@H]2O)n1 (stereo not given in full)
- Control [29]: 1.3%
- Control [30]: Toxic
- Control [31]: 1.7%
- Control [32]: 27%
- Control [33]: Toxic
- Control [34]: 1.1%
- Control [35]: Toxic
- Control [36]: 0.4%
- Control [37]: 1.7%
- Control [38]: Toxic
- Spleen weight [39]: Toxic
- T/C [40]: 149%
- T/C [41]: 92%
- T/C [42]: 144%
- T/C [43]: 114%
- T/C [44]: 48%
- T/C [45]: 149%
- T/C [46]: 134%
- T/C [47]: 159% and 144%
- T/C [48]: 70%
- Spleen weight [49]: 1257 mg
- Spleen weight [50]: Toxic
